Experimental data as given in patent US20250281424A1 (New York Blood Center, Inc, priority 2020, published 2025).

Target: T1, human PF4 (Homo sapiens, UniProt P02776)
T1 construct: PF4 is a 70 amino acid, lysine-rich 7.8 kDa platelet-specific protein; made in house; host or cells: Escherichia coli BL21DE3 pLysS (pT7-7) and/or Drosophila S2 cells
T1 sequence (P02776 32-101): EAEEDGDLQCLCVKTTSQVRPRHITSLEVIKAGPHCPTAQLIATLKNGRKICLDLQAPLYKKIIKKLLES
Assay: Inhibition of PF4 tetramer formation (BS3 cross-linking, SDS-PAGE)
Format: biochemical
Settings: for inhibition at 5 µM: 5 μM inhibitor; for inhibition at 10 µM: 10 μM inhibitor (column A); for IC50: read-out: IC50 of PF4 tetramer formation inhibition; for inhibition at 30 µM: 30 μM inhibitor
Experimental: Compounds of Examples 1-38, 65-301, 303, 305, 307, 309, 311, 313, 314, 316, and 318-404 were tested using SDS PAGE analysis of BS3 crosslinked PF4 for their ability to prevent PF4 tetramer formation. […] See, Suvarna et al., Throm. Res, 122:211-220 (2008), which is hereby incorporated by reference, at least for a detailed description of this technique.
cDNA encoding human PF4 was cloned into the plasmid μMT/BiPN5-His A (Invitrogen Corp., Carlsbad CA) for expression in the Drosophila Expression System (Invitrogen, Carlsbad, CA). Cloning was performed using Bg1 II and Age I cloning sites. A hexanucleotide encoding Bg1 II site was then eliminated by site-directed mutagenesis so that the expressed protein contained full-length wild type (wt) PF4 or PF4^K50E with an identical sequence as their counterparts expressed in E. coli. See, method described in Sachais et al (Sachais, B. S. et al. (2012). Blood 119(25): 5955-5961). PF4 expression was induced by adding copper sulfate (0.5 mM). The induced S2 cells were incubated in serumfree Insect-Xpress™ media (Lonza, Walkersville, MD) for 3-5 days; supernatants were collected, sodium azide (0.02% final concentration) and EDTA (2.5 mM final concentration) were added, and the media were filtered through an Express® PLUS 0.22 μm filter (Millipore Corp., Billerica, MA).
Wild-type (WT) human PF4 in the pT7-7 vector (Novagen, Madison, WI) was expressed in the Escherichia coli strain BL21DE30 pLysS (Stratagene, La Jolla, CA), and purified and characterized as described by Rauova et al. (Rauova, L. et al. (2006). Blood 107(6): 2346-2353) and Park et al., (Blood, 75:1290-1295 (1990)), which are hereby incorporated by reference. Briefly, recombinant protein was isolated from the supernatant of the bacterial lysate by affinity chromatography using a HiTrap high-performance (HP) affinity column. WT PF4 was purified from the media on a heparin HiTrap® column on an ÄTKAPrime™ system (GE Healthcare) at 4° C. in Tris (10 mM), EDTA (1 mM), and pH 8 buffer. Media was loaded in buffer containing NaCl (0.5 M) and PF4 was eluted at 1.8 M NaCl using a linear gradient. Fractions containing purified PF4 as detected by silver staining of 12% NuPAGE Bis-Tris gels (Invitrogen) were pooled, concentrated and buffer exchanged into 50 mM HEPES, 0.5 M NaCl, pH—7.2 using an Amicon® Ultra centrifugal filter (3K NMWL, Millipore Corp). Protein was quantified using a BCA assay.
Compounds of Examples 1-38, 65-196, and 209-228 were then tested for their ability to inhibit PF4 tetramer formation using a cross-linking assay as described in Rauova cited above. Specifically, hPF4 (10 μg/ml) in phosphate-buffered saline (PBS) was incubated at 37° C. for 15 min in the absence of the antagonistic compounds (control sample) and presence of compounds. Cross-linking and SDS-PAGE analysis were then performed as described in “Analysis of PF4 multimerization” of Rauova. The relative amounts of PF4 in each of the monomer, dimer, trimer and tetramer form were calculated by analyzing the samples on a 12% SDS-polyacrylamide gel under reducing conditions. Bands were quantified using the Kodak ID Image Analysis system (Kodak, Rochester, NY). The SigmaMarker™ reagent served as the molecular weight standard. Data was compiled and bar graphed as % PF4 for the tetramer, trimer, dimer, and monomer as a function of concentration for the test and control samples.
This experiment was performed in a manner similar to experiment 1, but PF4 (10 μg/ml) in PBS was independently incubated with compounds of Examples 1-38, 65-196, and 209-228 for 60 min at room temperature, followed by the addition of cross-linking reagent bis(sulfosuccinimidyl)suberate (0.2 mM) for 30 min at room temperature. The reaction was stopped by adding NuPAGE® lithium dodecyl sulfate (LDS) sample buffer, and denatured by heating to 70° C. for 10 min according to the manufacturer's instructions. […]

[1] = read-out: % inhibition of PF4 tetramer formation at single concentration of inhibitor

inhibition at 5 µM [1] | inhibition at 10 µM [1] | IC50 | Structure (SMILES) | also measured
94% | 97% | 1.4 µM | O=C(c1ccc2c(c1)C(=O)C(C(=O)[C@@H]1C[C@H]1C(=O)O)C2=O)c1ccc2c(c1)C(=O)C(C(=O)[C@@H]1C[C@H]1C(=O)O)C2=O (stereo in doubt) [Example 222, (1R,2R)-2-(5-{2-[(1R,2R)-2-carboxycyclopropanecarbonyl]-1,3-dioxo-2,3-dihydro-1H-indene-5-carbonyl}-1,3-dioxo-2,3-dihydro-1H-indene-2-carbonyl)cyclopropane-1-carboxylic acid] | 
97% | 100% | 1.4 µM | O=C1c2ccc(S(=O)(=O)c3ccc4c(c3)C(=O)C(C(=O)[C@@H]3C[C@H]3C(=O)O)C4=O)cc2C(=O)C1C(=O)[C@@H]1C[C@H]1C(=O)O (stereo in doubt) [Example 223, (1R,2R)-2-[5-({2-[(1R,2R)-2-carboxycyclopropanecarbonyl]-1,3-dioxo-2,3-dihydro-1H-inden-5-yl}sulfonyl)-1,3-dioxo-2,3-dihydro-1H-indene-2-carbonyl]cyclopropane-1-carboxylic acid] | 
 |  |  | COC(=O)[C@H]1CCCCC1C(=O)C1C(=O)c2ccc(C(=O)c3ccc4c(c3)C(=O)C(C(=O)C3CCCC[C@@H]3C(=O)OC)C4=O)cc2C1=O (stereo in doubt) [Example 256, methyl (1S)-2-(5-{2-[(2S)-2-(methoxycarbonyl)cyclohexanecarbonyl]-1,3-dioxo-2,3-dihydro-1H-indene-5-carbonyl}-1,3-dioxo-2,3-dihydro-1H-indene-2-carbonyl)cyclohexane-1-carboxylate] | inhibition at 1 µM (1 μM inhibitor, read-out: % inhibition of PF4 tetramer formation at single concentration of inhibitor): 13%; inhibition at 3 µM (3 μM inhibitor (column A), read-out: % inhibition of PF4 tetramer formation at single concentration of inhibitor): 32%
 |  | 1.05 µM | CCOC(=O)C1(C(C)=O)C(=O)c2ccc(Oc3ccc4c(c3)C(=O)CC4=O)cc2C1=O (centres unmarked) [Example 6, 2-acetyl-5-(1,3-dioxo-indan-5-yloxy)-1,3-dioxo-indan-2-carboxylic acid ethyl ester] | 
 |  | 1.12 µM | O=C1CC(=O)c2cc(Oc3ccc4c(c3)C(=O)CC4=O)ccc21 [Example 7, 5-(2,3-dihydro-1,3dioxo-1h-inden-6-yloxy)-2,3-dihydro-1,3-dioxo-1h-indene] | 
 |  | 3.4 µM | CC(=O)C1(C(=O)OC(C)C)C(=O)c2ccc(Oc3ccc4c(c3)C(=O)CC4=O)cc2C1=O (centres unmarked) [Example 8, ethyl 2-acetyl-5-(1,3-dioxo-indan-5-yloxy)-1,3-dioxo-indan-2-carboxylic acid isopropyl ester] | 
 |  | 2.32 µM | O=C1CC(=O)c2cc(S(=O)(=O)c3ccc4c(c3)C(=O)CC4=O)ccc21 [Example 12, 5,5′-sulfonylbis(1h-indene-1,3(2h)-dione)] | 
16% | 74% |  | O=C1CC(=O)c2cc(C(c3ccc4c(c3)C(=O)CC4=O)(C(F)(F)F)C(F)(F)F)ccc21 [Example 13, 5-(2,2,2-trifluoro-1-(5-indan-1,3-dionyl)-1-trifluoromethyl-ethyl)-indan-1,3-dione] | 
 |  | 1 µM | O=C(c1ccc2c(c1)C(=O)C(C(=O)Nc1ccccc1)C2=O)c1ccc2c(c1)C(=O)C(C(=O)Nc1ccccc1)C2=O (centres unmarked) [Example 14, 5,5′-carbonylbis(1,3-dioxo-indan-2-carboxylic acid phenylamide)] | inhibition at 30 µM [1]: 96%
 |  | 20 µM | CCOC(=O)NC(=O)C1C(=O)c2ccc(C(=O)c3ccc4c(c3)C(=O)C(C(=O)NC(=O)OCC)C4=O)cc2C1=O (centres unmarked) [Example 16, 5,5′-carbonylbis((1,3-dioxo-indane-2-carbonyl)-carbamic acid ethyl ester)] | inhibition at 30 µM [1]: 78%
 |  | 1.08 µM | O=C(c1ccc2c(c1)C(=O)C(C(=O)Nc1cc(Cl)nc(Cl)c1)C2=O)c1ccc2c(c1)C(=O)C(C(=O)Nc1cc(Cl)nc(Cl)c1)C2=O (centres unmarked) [Example 17, 5,5′-carbonylbis(1,3-dioxo-indan-2-carboxylic acid (2,6-dichloro-pyridin-4-yl)-amide)] | 
29% | 56% |  | O=C(c1ccc2c(c1)C(=O)C(C(=O)NCc1ccco1)C2=O)c1ccc2c(c1)C(=O)C(C(=O)NCc1ccco1)C2=O (centres unmarked) [Example 19, 5,5′-carbonylbis(1,3-dioxo-indan-2-carboxylic acid (furan-2-ylmethyl)-amide)] | 
27% | 46% |  | O=C(c1ccc2c(c1)C(=O)C(C(=O)NC1CC1)C2=O)c1ccc2c(c1)C(=O)C(C(=O)NC1CC1)C2=O (centres unmarked) [Example 21, 5,5′-carbonylbis(1,3-dioxo-indan-2-carboxylic acid (cyclopropyl)-amide)] | 
84% | 92% | 1.75 µM | COc1cccc(NC(=O)C2C(=O)c3ccc(C(=O)c4ccc5c(c4)C(=O)C(C(=O)Nc4cccc(OC)c4)C5=O)cc3C2=O)c1 (centres unmarked) [Example 23, 5,5′-carbonylbis(1,3-dioxo-indan-2-carboxylic acid (3-methoxyphenyl)-amide)] | 
83% | 89% | 5.11 µM | O=C(c1ccc2c(c1)C(=O)C(C(=O)NCCCc1ccccc1)C2=O)c1ccc2c(c1)C(=O)C(C(=O)NCCCc1ccccc1)C2=O (centres unmarked) [Example 24, 5,5′-carbonylbis(1,3-dioxo-indan-2-carboxylic acid (3-(phenyl)propyl)-amide)] | 
63% | 70% | 6.24 µM | O=C(c1ccc2c(c1)C(=O)C(C(=O)NCc1ccccc1)C2=O)c1ccc2c(c1)C(=O)C(C(=O)NCc1ccccc1)C2=O (centres unmarked) [Example 25, 5,5′-carbonylbis(1,3-dioxo-indan-2-carboxylic acid ((phenyl)methyl)-amide)] | 

Structure (SMILES) | inhibition at 5 µM [1] | inhibition at 10 µM [1] | IC50 | also measured
CC(C)(C)OC(=O)N1CCC[C@H]1CC(=O)C1C(=O)c2ccc(C(=O)c3ccc4c(c3)C(=O)C(C(=O)C[C@@H]3CCCN3C(=O)OC(C)(C)C)C4=O)cc2C1=O (stereo in doubt) [Example 112, tert-butyl (2S)-2-{2-[5-(2-{2-[(2S)-1-[(tert-butoxy)carbonyl]pyrrolidin-2-yl]acetyl}-1,3-dioxo-2,3-dihydro-1H-indene-5-carbonyl)-1,3-dioxo-2,3-dihydro-1H-inden-2-yl]-2-oxoethyl}pyrrolidine-1-carboxylate] | 84% | 89% | 1.2 µM | 
CC(=O)C1C(=O)c2ccc(S(=O)(=O)c3ccc4c(c3)C(=O)C(C(C)=O)C4=O)cc2C1=O (centres unmarked) [Example 2, 5,5′-sulfonylbis(2-acetyl-1h-indene-1,3(2h)-dione)] |  |  | 18 µM | 
CC(=O)C1C(=O)c2ccc(Oc3ccc4c(c3)C(=O)C(C(C)=O)C4=O)cc2C1=O (centres unmarked) [Example 9, 5-(2-acetyl-2,3-dihydro-1,3-dioxo-1h-inden-6-yloxy)-2-acetyl-2,3-dihydro-1,3-dioxo-1h-indene] |  |  | 52 µM | 
CC(=O)C1C(=O)c2ccc(-c3ccc4c(c3)C(=O)C(C(C)=O)C4=O)cc2C1=O (centres unmarked) [Example 10, 2-acetyl-5-(2-acetyl-2,3-dihydro-1,3dioxo-1h-inden-5-yl)-2,3-dihydro-1,3-dioxo-1h-indene] |  |  | 1.35 µM | 
